We go through 97 compounds from the CATMoS acute toxicity set (Mansouri et al. 2021).

The nature of this data set: GHS categories as the set defines them, by LD50: 1 up to 5, 2 up to 50, 3 up to 300, 4 up to 2000, 5 above 2000 mg/kg. The following applies: rat; in vivo; po.
`CNC(=O)C(=NNc1ccc(OC)cc1[N+](=O)[O-])C(C)=O`: the GHS category amounted to 5.
Compound `COc1ccc(Cl)cc1N/C(=N/C1CCCCC1)c1ccccc1C` had a GHS category of 4.
In turn, `CCCCCNC(=O)c1ccccc1` gave a GHS category of 5.
`CSC` gave a GHS category of 4.
With `CC(=O)N(C)C(=O)Oc1cccc2c1OC(C)(C)O2` the figure was 4; with `CCOC(=O)C(F)F`, 5; with `O=S(=O)(O)c1ccc(Nc2nc(Nc3ccc(C=Cc4ccc(Nc5nc(Nc6ccc(S(=O)(=O)O)cc6)nc(N6CCOCC6)n5)cc4S(=O)(=O)O)c(S(=O)(=O)O)c3)nc(N3CCOCC3)n2)cc1`, 5.
In turn, `CC1(C)C2CC[C@]3(C)C(CC=C4[C@H]5C[C@](C)(C(=O)O)CC[C@]5(C)CC[C@]43C)[C@@]2(C)CC[C@@H]1OC(=O)C=CC(=O)O` (some centres not stated) gave a GHS category of 5.
With `CCCC(=O)OC[C@@H](OC(=O)CCC)[C@@H](OC(=O)CCC)[C@H](Cn1c2nc(=O)[nH]c(=O)c-2nc2cc(C)c(C)cc21)OC(=O)CCC` the figure was 5; with `C=C(C)C1CCC(C)C(O)C1` (configuration not stated), 5.
With `CCc1oc2ccccc2c1C(=O)c1ccc(O)cc1` the figure was 5; with `CN1C(C(=O)Nc2ccccn2)=C(Nc2ccccn2)c2sc(Cl)cc2S1(=O)=O`, 2.
With `CCCCCCCC/C=C\CCCCCCCC(=O)OCC` the figure was 5.
Compound `CCCC(=O)O[C@]1(C(=O)CO)CC[C@H]2[C@@H]3CCC4=CC(=O)CC[C@]4(C)[C@H]3[C@@H](O)C[C@@]21C` showed a GHS category of 5.
With `O=C1Cc2ccccc2O1` the figure was 5; with `N#CC1(N)CC1`, 4; with `C[C@@H]1O[C@@H]1P(=O)(O)O`, 5.
`COc1ccc(C2NC(=O)CCS2)cc1` (configuration not stated) gave a GHS category of 5.
With `NC(=O)OCC(COC(N)=O)c1ccccc1` the figure was 5.
For `O=S(=O)(O)c1cccc(Nc2nc(NCCO)nc(Nc3ccc(/C=C/c4ccc(Nc5nc(NCCO)nc(Nc6cccc(S(=O)(=O)O)c6)n5)cc4S(=O)(=O)O)c(S(=O)(=O)O)c3)n2)c1`, the GHS category is 5.
With `CCC(=O)OC/C=C(\C)CCC=C(C)C` the figure was 5; with `CCCC(=O)OCCC(C)C`, 5.
With `CCN(CC)CC1CC2(CC(CN(CC)CC)OC2=O)C(=O)O1` (configuration not stated) the figure was 5; with `O=C(O)C[C@H](NCCN[C@@H](CC(=O)O)C(=O)O)C(=O)O`, 5; with `O=C(NC(=O)c1ccccc1Cl)Nc1ccc(OC(F)(F)F)cc1`, 5.
With `CNC(=O)C(=NNc1ccccc1[N+](=O)[O-])C(C)=O` the figure was 5; with `CCCCCCCC1CCCO1` (configuration not stated), 5.
`CCN(CC)C(=O)C(C)Oc1cccc2ccccc12` (configuration not stated) yielded a GHS category of 5.
For the compound `COCCOC=C1OC2=C(C(=O)N1c1ccccn1)N(C)S(=O)(=O)c1cc(Cl)sc12`, the GHS category is reported as 2.
With `CC1(C)S[C@@H]2[C@H](NC(=O)C(c3ccccc3)S(=O)(=O)O)C(=O)N2[C@H]1C(=O)O` (some centres not stated) the figure was 5; with `CCCCCC1COCCC1OC(C)=O` (configuration not stated), 5.
Regarding `COc1ccc(C(=O)Nc2ccccc2)cc1N`, the GHS category worked out at 5.
On to `CC(=O)N(C)C(=O)Oc1cccc2c1OC(C)(C(C)(C)C)O2` (configuration not stated), for which the GHS category is 4.
`COc1ccc(N(CCCC(=O)O)C(=O)c2ccc(Cl)cc2)c(OC)c1` yielded a GHS category of 4.
In the case of `CCCCCCC(COC(=O)c1cccnc1)(COC(=O)c1cccnc1)COC(=O)c1cccnc1`, the GHS category was 5.
With `CC(=O)O[C@]1(C(C)=O)CC[C@H]2[C@@H]3C[C@H](C)C4=CC(=O)CC[C@]4(C)[C@H]3CC[C@@]21C` the figure was 5; with `CN1C(=O)COc2cc(C(=O)C=Cc3ccc(O)cc3)ccc21`, 5.
With `Cc1ccc(S(=O)(=O)NC(=O)Nc2cccc(OS(=O)(=O)c3ccc(C)cc3)c2)cc1` the figure was 5; with `CCCCCCCCCCCC#N`, 5.
With `O=C1OCC[C@@H]1O` the figure was 5; with `CCN(C(=O)CCCSc1nnnn1C)C1CCCCC1O` (configuration not stated), 4.
`CCC(C)(O)CCCC(C)C` (configuration not stated) returned a GHS category of 5.
With `CC(C)CCCCCCCCCCO` the figure was 5; with `OC1(c2ccc(-c3ccccc3)cc2)c2ccccc2C2=NCCN21` (configuration not stated), 4; with `CCCC/C=C/C=C\C=O`, 5.
Turning to `CC(=O)N1c2ccccc2SC1c1cc([N+](=O)[O-])ccc1OCCCN(C)C1CCCCC1` (configuration not stated), the GHS category is 5.
With `COC(=O)c1ccc(N2CCC(c3ccc(Cl)cc3)=N2)cc1` the figure was 5.
With `C=CC(C)(CCC=C(C)C)OC(=O)Cc1ccccc1` (configuration not stated) the figure was 5; with `FC(F)(Cl)C(Cl)(Cl)Cl`, 5.
Take `CCCC(=O)OCC(C)C`: the GHS category amounted to 5.
With `CCC[C@H]1CC[C@H](c2ccc(O)cc2)CC1` the figure was 5; with `N[C@@H](CC(=O)N1CCn2c(nnc2C(F)(F)F)C1)Cc1cc(F)c(F)cc1F`, 5.
With `COc1cccc(C(=O)NN(C(=O)c2cc(C)cc(C)c2)C(C)(C)C)c1C` the figure was 5; with `CC(CC(C)(C)C)CC(C)(C)C`, 5.
`CO/N=C(/C(=O)N[C@@H]1C(=O)N2C(C(=O)O)=C(CSc3cnns3)CS[C@H]12)c1csc(N)n1` yielded a GHS category of 5.
With `CC(=O)Oc1c(I)cc(I)cc1C(=O)Nc1ccc(Cl)cc1` the figure was 5.
With `O=C1OC(=O)c2ccc3c4ccc5c6c(ccc(c7ccc1c2c73)c64)C(=O)OC5=O` the figure was 5; with `CCOC(=O)C1CN(C)C2CCCC(C)N2C1=O` (configuration not stated), 5.
Compound `OC1(c2ccccc2)c2c(Cl)cccc2C2=NCCN21` (configuration not stated) came in with a GHS category of 4.
With `O=C(O)c1ccccc1N=Cc1ccccc1` the figure was 4; with `O=C(O)c1ccccc1C(=O)N1CCSC1`, 5.
The compound `C=C(C)C(CC=C(C)C)COC(=O)C=C(C)C` (configuration not stated) came in with a GHS category of 5.
`CCCCCOC=O` had a GHS category of 5.
The compound `NC[C@H]1O[C@H](O[C@H]2[C@H](O)[C@@H](O[C@H]3O[C@H](CO)[C@@H](O)[C@H](N)[C@H]3O)[C@H](N)C[C@@H]2N)[C@H](O)[C@@H](O)[C@@H]1O` had a GHS category of 5.
With `CC1(C)CC2(CC(C)(C)N1)OC1(CCCCCCCCCCC1)NC2=O` the figure was 5.
As to `CCS(=O)(=O)CCC(=O)NNC(=O)N1Cc2ccccc2Oc2ccc(Cl)cc21`, the GHS category turned out to be 5.
As to `CCOC(=O)C(C)(C)Br`, the GHS category is on record as 5.
With `CC1(C)COC(Cn2cncn2)(c2cc3ccccc3o2)OC1` the figure was 4; with `CC(C)=NO`, 5; with `Nc1ccc(S(=O)(=O)O)cc1N`, 5.
With `CC(O)CO[C@@H]1[C@@H](O)[C@H]2O[C@H]3[C@H](OCC(C)O)[C@@H](O)[C@@H](O[C@H]4[C@H](O)[C@@H](OCC(C)O)[C@@H](O[C@H]5[C@H](O)[C@@H](O)[C@@H](O[C@H]6[C@H](O)[C@@H](OCC(C)O)[C@@H](O[C@H]7[C@H](O)[C@@H](O)[C@@H](O[C@@H]1[C@@H](CO)O2)O[C@@H]7CO)O[C@@H]6CO)O[C@@H]5CO)O[C@@H]4CO)O[C@@H]3CO` (some centres not stated) the figure was 5; with `CCOC(C)(C)CC`, 5; with `CCCCC(O)CCO` (configuration not stated), 5.
With `Cc1ccc(OC(=O)Cc2ccccc2)cc1` the figure was 5.
Take `CCCCCCCC/C=C\CCCCCCCC(=O)OCC(COC(=O)CCCCCCC/C=C\CCCCCCCC)OC(=O)CCCCCCC/C=C\CCCCCCCC`: the GHS category stood at 5.
Compound `O=C1Nc2ccccc2OC1(c1ccc(O)cc1)c1ccc(O)cc1` came in with a GHS category of 5.
In the case of `CO[C@@H](c1cc(C)c(O)c(C)c1)[C@@H](C)CO`, the GHS category came to 5.
In turn, `Cc1cccc(OC(=O)c2ccc(Cl)cc2OC(N)=O)c1` yielded a GHS category of 5.
With `CCOC(=O)c1sc(-c2ccc(OCC(C)C)c(C=O)c2)nc1C` the figure was 5.
Take `CCOC(=O)C(=O)Nc1cc(OC)nc(-c2ccccc2)n1`: the GHS category was 4.
With `CCOC(=O)CCn1c(=N)oc2ccccc21` the figure was 4; with `CCCCCCCCCCCCCCCC[Si](OC)(OC)OC`, 5.
Compound `CCS(=O)c1c(C#N)nn(-c2c(Cl)cc(C(F)(F)F)cc2Cl)c1N` (configuration not stated) returned a GHS category of 5.
Consider `C[C@@H]1CCO[C@@](Cn2cncn2)(c2cc3ccccc3o2)O1`, for which the GHS category is given as 4.
`COCC1COC(Cn2cncn2)(c2cc3cc(Cl)cc(Cl)c3o2)O1` (configuration not stated) registered a GHS category of 4.
With `CCCCOC(=O)C(C)O` (configuration not stated) the figure was 5.
With `CCCCCCCCCCCCCCCCCCSSCCCCCCCCCCCCCCCCCC` the figure was 5; with `CCCCOC(=O)c1ccc(-n2nc(OCCN(C)C)c3ccccc32)cc1`, 4.
With `CCN(Cc1cccc(S(=O)(=O)O)c1)c1ccc(C(=C2C=CC(=[N+](CC)Cc3cccc(S(=O)(=O)O)c3)C=C2)c2ccc(O)cc2S(=O)(=O)[O-])cc1` the figure was 5; with `CCCCC(CC)COC(=O)C(C#N)=C(c1ccccc1)c1ccccc1` (configuration not stated), 5; with `CSCCC(NC(=O)C(N)Cc1c[nH]c2ccccc12)C(=O)NC(CC(=O)O)C(=O)NC(Cc1ccccc1)C(N)=O` (configuration not stated), 5.
The compound `CC(C)=CCN(CC=C(C)C)CCC(C#N)c1cccc2ccccc12` (configuration not stated) showed a GHS category of 4.
With `O=C[C@H](O)[C@@H](O)[C@H](O)[C@H](O)CO[C@H]1O[C@H](CO[C@H]2O[C@H](CO)[C@@H](O)[C@H](O)[C@H]2O)[C@@H](O)[C@H](O)[C@H]1O` the figure was 5; with `Cc1ccc(C(=O)c2cc(O)c(O)c([N+](=O)[O-])c2)cc1`, 5.
`CCCCCCCCCCN(C)C` came in with a GHS category of 5.
With `CC(C)OC(=O)CCC(=O)OC(C)C` the figure was 5; with `CC(C)(c1ccccc1)c1ccc(Nc2ccc(C(C)(C)c3ccccc3)cc2)cc1`, 5.
